Like-named read-outs stand apart in the source and are kept apart here.
Key:
[1] = test system: epididymal fat of the rat; assay: effect on in vitro induced lipolysis in epididymal fat of the rat; conditions: in words
Experimental: The effect on the in vitro induced lipolysis in the epididymal fat of the rat was measured by colorimetry of fatty acids liberated during the tissue incubation under the experimental conditions such as described hereinafter.
Male Sprague-Dawley rats weighing about 250 gr were sacrified by cervical dislocation after a fasting period of 18 hours. The quickly taken-off epididymal fat was placed in a Krebs-Ringer phosphate buffer at pH 7.4, containing 1% albumin.
The tissue was cut into fragments of ±20 mgr, which were dried on filter paper and homogeneously distributed in groups of ±150 mgr weighed with precision. Each group was pre-incubated (15 minutes, 37° C., stirring) in 5 ml of Krebs-Ringer phosphate buffer (pH 7.4) containing 7% of bovine albumin and the product to be tested.
After pre-incubation, 1 ml of the medium is taken off for determining the amount of basic lipolysis. The induction agent in solution in 0.1 ml of phosphate buffer is then added to 4 ml of the remaining medium and after incubation of 90 minutes under the same conditions, liberated fatty acids are titrated in 1 ml of medium according to a variant of the colorimetric method of W. G. Duncombe (Biochem. J., 83, 6P, 1962; Biochem. J., 88, 7-10, 1963; Clin. Chem. Acta, 9, 122-125, 1964).

guinea pig ileum = assay: antispasmodic activity against contractions of guinea pig ileum induced by histamine and acetylcholine; conditions: Cavia porcellus
Experimental: The antispasmodic activity of the products according to the invention was tested against contractions of guinea pig ileum, such as induced by histamine and acetylcholine. These tests allow to reveal an antihistaminic activity, an anticholinergic activity or a musculotropic antispasmodic activity. The response to the contracting agent (submaximum concentration)was repeated every 5 minutes before and after injection of increasing doses of the tested products (10^-8 to 10^-5 M). The various doses were added at intervals of 20 minutes or of the time necessary to the development of the maximum effect.
The percentage of inhibition under the influence of tested products was calculated and the theoretical concentration ensuring 50% inhibition was graphically determined for each experience. These values were expressed as -log IC50 (M). The standard value for papaverine was 4.50, namely an effective concentration of 30 μM.

[2] = test system: human platelet rich plasma (PRP); assay: blood platelet aggregation (Born method) in human platelet rich plasma; assay type: cell-based; conditions: 24 μl of 2×10^-2 M solution added to 300 μl PRP; induced by thrombofax or collagen; in words
Experimental: The blood platelet aggregation was studied according to the Born Method (J. Physiol., 168, 178, 1963). Nine volumes of human venous blood were taken off and anticoagulated with one volume of a trisodium citrate solution (0.129 M). The blood was centrifuged at 200 g for 10 minutes (22° C.) for preparing the platelet rich plasma (PRP). Methanol or acetone was used in order to obtain 2×10^-2 M solutions of the various involved products, 24 μl of each product were added to 300 μl of PRP. For controls, 24 μl of the various hereinabove mentioned solvents were used. The products were pre-incubated in the presence of PRP for 4 minutes at 37° C. under continuous stirring (1100 rpm). After this incubation period, the platelet aggregation was induced by addition of 100 μl of thrombofax or collagen. The aggregation phenomenon was quantified by graphical determination of the aggregation amplitude (A).
The inhibition percentage of the agglutination amplitude was calculated as follows:
A (% inhibition): 100-(Ax /Ao)×100
Ax : value of aggregation amplitude in the presence of examined products
Ao : value of aggregation amplitude for controls

[3] = test system: femoral arterial circulation; assay: peripheral vasodilator activity on anaesthetized dog, femoral arterial perfusion pressure; assay type: in vivo; conditions: 30 μg/kg injected in femoral perfusion (some also at other doses); in words
Experimental: The peripheral vasodilator activity of the products according to the invention was measured on anaesthetized dog at the level of the femoral arterial circulation. To this end, the femoral artery the collaterals of which were ligaturated was perfused with a constant flow rate of blood taken from aorta. Thus the perfusion pressure measured at the level of the femoral artery, varied as a function of the resistance of perfused area. The tested products and the corresponding solvents were directly injected in the system at the dose of 30 μg/kg. The blood circulation rate being maintained constant, a vasodilation was thus measured by a decrease of the perfusion pressure. The latter is rated in comparison with the action of papaverine considered as standard and injected once per group of 4 products.
When being of interest, the products were tested at other doses under the same conditions. The vasodilation activity was rated as follows:
+: 1/3 of the papaverine activity
++: 2/3 of the papaverine activity
+++: activity equal to that of papaverine (i.e. 30 to 40 mm Hg)
++++: activity higher than that of papaverine.

[4] = test system: spontaneously hypertensive rats; assay: antihypertensive activity, oral administration to non-anesthetized spontaneously hypertensive rats, systolic arterial pressure (plethysmographic); assay type: in vivo, rat; conditions: 60 mgr/kg oral (some also at other doses); in words
Experimental: Their antihypertensive activity was tested by oral administration to non-anesthetized, spontaneously hypertensive rats, on which the systolic arterial pressure is measured at the level of the median coccygeal artery by means of a plethysmographic method (J. Roba, G. Lambelin, A. F. De Schaepdryver, Arch. int. Pharmacodyn., 200, 182, 1972). The arterial pressure was measured every 30 minutes from two hours before to three hours after oral administration of 60 mgr/kg of the tested products or of a placebo (1% tragacanth gum mucilage). When being of interest, the products were tested at other doses under similar conditions. Only rats having a systolic pressure of 180 to 220 mm Hg were used. Two rats were used for each product. The treatments were made without the knowledge of the person making the measures. The antihypertensive effects were rated as follows:
+: reduction of 10 to 20 mm Hg
++: reduction of 20 to 30 mm Hg
+++: reduction of 30 to 50 mm Hg
++++: reduction >50 mm Hg

[5] = contractions induced by histamine and acetylcholine, 10^-8 to 10^-5 M, read-out: -log IC50 (M), antispasmodic activity (converted)

Structure (SMILES) | effect on induced lipolysis [1] | IC50 (guinea pig ileum; [5]) | anti-aggregation effect [2] | peripheral vasodilator activity (compared with papaverine) [3] | further results
CCCCCCCCNC(C)C(OC(=O)C(C)(C)C)c1ccc(SC(C)C)cc1 (centres unmarked) [Compound 1] | active | < 1e-06 M | – | – | IC50 (guinea pig ileum; 50% inhibition of contractions, converted from -log IC50, read-out: effective concentration / concentration corresponding to -log IC50 (converted)): < 1e-06 M
CCCCCCCCNC(C)C(OC(C)=O)c1ccc(SC(C)C)cc1.Cl (centres unmarked) [Compound 3, 1-Acetyloxy-1-(4-isopropylthiophenyl)-2-n-octylaminopropane hydrochloride] | – | – | strong anti-aggregation effect | at least equal to that of papaverine | IC50 (guinea pig ileum; read-out: -log IC50 (M), antispasmodic activity (converted)): < 1e-06 M; IC50 (guinea pig ileum; read-out: effective concentration / concentration corresponding to -log IC50 (converted)): < 1e-06 M
CCCCCCCCNC(C)C(OC(=O)CC(C)(C)C)c1ccc(SC(C)C)cc1.Cl (centres unmarked) [Compound 30, 1-neopentylcarbonyloxy-1-(4-isopropylthiophenyl)-2-n-octylaminopropane (hydrochloride)] | – | < 1e-06 M | strong anti-aggregation effect | – | antihypertensive activity [4]: suitable antihypertensive activity
CCCCCCCCNC(C)C(O)c1ccc(OC)cc1 (centres unmarked) [Compound 74, 1-(4-methoxyphenyl)-2-n-octylamino-1-propanol] | active | – | – | at least equal to that of papaverine | –
CCCCCCCCNC(C)C(O)c1ccc(C)cc1 (centres unmarked) [Compound 75] | active | – | – | – | –
CCCCCCCCNC(C)C(O)c1ccccc1 (centres unmarked) [Compound 76] | active | – | – | – | –
